# Read-outs that look alike come from different tables or passages of the source.
# Key:
# A2 strain RSV = test: CPE inhibition assay in MA-104 cells; assay type: cell-based, Respiratory syncytial virus
# Description: (§1) The CPE inhibition assay used in this study was performed as described by Sidwell and Huffman (Sidwell et al., 1971, Appl. Microbiol. 22:7979-7801) with slight modifications. Varying concentrations of test compounds were added to each plate containing near confluent cell monolayers (1×10^5 cells/well) followed immediately by the addition of virus at a multiplicity of infection (MOI)=0.01, and then incubated at 37° C. On the following day, the medium from each plate was removed and fresh compound added. The assay was stopped at the end of the sixth day when the virus cytopathic effect in the virus infected, untreated control cells affected all cells. All compounds were assayed for virus inhibition in quadruplicate and for cytotoxicity in duplicate. For each compound, two wells were set aside as uninfected, untreated cell controls per test and four wells per test received virus only and represented controls for virus replication. […] For all CPE-based assays, the 50% effective concentration (EC50) was calculated by regression analysis using the means of the CPE ratings at each concentration of compound.
# EC50 Concentration for 50% inhibition of virus replication (microM)
# (§2) Determined in MA-104 cells, A2 strain RSV
# MA-104 cells = test: Cytotoxicity graded by morphological change in MA-104 cells; assay type: cell-based, African green monkey
# Description: (§3) Embryonic African green monkey kidney cells (MA-104) were obtained from BioWhittaker, Inc. (Walkersville, Md.). HEp-2 cells were propagated from a human epidermoid carcinoma of the larynx (American Type Culture Collection, ATCC; Rockville, Md.). The cells were grown in minimal essential medium. (MEM, Gibco-BRL, Gaitherburg, Md.) supplemented with 0.1% NaHCO3 and 10% fetal bovine serum (FBS, Hyclone Laboratories, Logan Utah.). When performing antiviral assays, serum was reduced to 2% and 50 μg/ml gentamicin (Sigma Chemical Company, St. Louis, Mo.) was added to the medium.
# (§4) Morphological changes due to compound cytotoxicity were graded on a scale of 0-5; grade 5 was defined as 100% cytotoxicity. The 50% cytotoxic dose (IC50 was calculated by regression analysis. A selective index (S.I.) was calculated for each compound [S.I.=(IC50)/(EC50 ].
# IC50 Conc. for 50% cytotoxicity grade by morphological change (microM)
# as §2
# RSV strain A2 [1] = test: Virus yield reduction assay in HEp-2 cells; assay type: cell-based, Respiratory syncytial virus; settings: compound added twice daily
# Description: EC50 & EC90 : concentration required to reduce virus (RSV strain
# Both compounds were added to the cells twice daily.
# RSV strain A2 [2] = test: CPE inhibition assay in HEp-2 cells; assay type: cell-based, Respiratory syncytial virus; settings: Table 10, CPE; B.I.D. 3 days; HEp2; read-out: EC50
# Description: as §1, with “On the following day, the medium from each plate was removed and fresh compound added. The assay was stopped at the end of the sixth day when the virus cytopathic effect in the virus infected, untreated control cells affected all cells.” left out
# Hep-2 Cells [3] = test: Cytotoxicity by morphological changes in HEp-2 cells (CPE inhibition assay); assay type: cell-based, human
# Description: as §3, §4
# RSV strain A2 [4] = test: Neutral red uptake assay of CPE inhibition in HEp-2 cells; assay type: cell-based, Respiratory syncytial virus; settings: read-out: EC50
# Description: (§5) This assay was performed by a modified method as described by Cavenaugh et al. (Cavenaugh et al. 1990, Invest. New Drugs 8:347-354). Briefly, medium was removed from each well of a plate scored for CPE from a CPE inhibition assay, 0.2 ml of neutral red (0.034% in PSS) was added to each of the wells of that plate and the plate incubated for 2 hr at 37° C. in the dark. The neutral red solution was removed from the wells and the wells rinsed twice with PBS (pH 7.4). Equal volumes (0.1 ml) of absolute ethanol and Sorenson citrate buffer (0.1 M sodium citrate, 0.1 M HCI, pH 4.2) were mixed together and added to each well. Plates were incubated in the dark for 30 min. at room temperature to solubilize the dye. The plates were then gently mixed on a 96-well plate adapted vortexer for 1 min. Absorbances at 540 nm and 450 nm were read with a microplate reader (Bio-Tek EL 1309; Bio-Tek Instruments, Inc. Winooski, Vt.). Absorbance values were expressed as percents of untreated controls and EC50 and IC50 values were calculated by regression analysis.
# Hep-2 Cells [5] = test: Neutral red uptake assay of cytotoxicity in HEp-2 cells; assay type: cell-based, human
# Description: as §3, §5
# RSV CH18537 (B) [6] = test: CPE inhibition assay in HEp-2 cells, RSV strain CH18537; assay type: cell-based, Respiratory syncytial virus; settings: Table 12, CPE, once a day for two days
# Description: as §1
# (§6) In this series, MP351 was added once a day for two days with fresh medium
# RSV Long (A) [7] = test: CPE inhibition assay in HEp-2 cells, RSV strain Long; assay type: cell-based, Respiratory syncytial virus; settings: Table 12, CPE, once a day for two days
# Description: as §1, §6
# [8] = tested on: RSV 393 (clinical isolate); test: CPE inhibition assay in HEp-2 cells, RSV 393; assay type: cell-based, Respiratory syncytial virus; settings: Table 12, CPE, once a day for two days
# Description: as §1, §6
# RSV CH18537 (B) [9] = test: Neutral red uptake assay in HEp-2 cells, RSV strain CH18537; assay type: cell-based, Respiratory syncytial virus; settings: Table 12, neutral red, once a day for two days
# Description: as §5, §6
# RSV Long (A) [10] = test: Neutral red uptake assay in HEp-2 cells, RSV strain Long; assay type: cell-based, Respiratory syncytial virus; settings: Table 12, neutral red, once a day for two days
# Description: as §5, §6
# [11] = tested on: RSV 393 (clinical isolate); test: Neutral red uptake assay in HEp-2 cells, RSV 393; assay type: cell-based, Respiratory syncytial virus; settings: Table 12, neutral red, once a day for two days
# Description: as §5, §6
# RSV M2 RNA = test: RT-PCR of M2 RNA from RSV-infected 9HTE cells; assay type: cell-based, Respiratory syncytial virus; settings: RNA at 8 h post-infection, M.O.I.=10
# Description: To determine if RSV RNA levels correlated with antiviral activity, RT-PCR analysis was performed on RNA isolated from RSV-infected and uninfected 9HTE cells with and without treatment with spA4 -antiRSV3'3'T/(8281-8299) or spA4 -antiRSV3'3'A/(8530-8547). An M2 RNA sequence in RSV (from nucleotides 7879 to 8465) was converted to cDNA and amplified by PCR. M2 RNA from the RSV-infected cells produced an RT-PCR DNA product that was clearly visible. […] Levels of GAPDH transcripts were similar in all of these RNA preparations.
# RNA was collected from 2×10^5 9HTE cells at 8 h post-infection (M.O.I.=10) by RNAzol treatment as described by the manufacturer (Tel-Test, Inc, Freindswood, Tex.). RNA was isolated after 8 h to limit RSV replication to a single cycle. Isolated RNA (≈1 μg) was incubated with 100 pmoles of the appropriate downstream (-) primer listed below or 100 pmoles of random hexamer (used for glyceraldehyde-3-phosphatedehydrogenase, GAPDH, mRNA only). RNA and primers were heated to 70° C. for 10 min then cooled rapidly on ice for 5 min. […]
# 25 μl Hot-Start upper buffer contained 5 U Taq DNA polymerase (GibcoBRL) and 1/10th of the cDNA from the RT reaction. […] Aliquots of the RT/PCR mixtures were analyzed on 1% agarose/TBE gels.
# [12] = MA-104 cells, A2 strain RSV (Table 8), read-out: EC50 Concentration for 50% inhibition of virus replication
# [13] = MA-104 cells (Table 8), read-out: IC50 Conc. for 50% cytotoxicity grade by morphological change
# [14] = Table 11, neutral red, q.d. 3 days, HEp2
# [15] = Table 8, text says HEP-2 cells, read-out: EC50 (inhibition of RSV replication)
# [16] = Table 8, text says HEP-2 cells, read-out: IC50 (toxicity)
substance,measurement,setting,value
2-5A-L2-AsAsAsAATGGGGCAAAsTsAsA [MP351],EC50,"A2 strain RSV; MA104 cells, CPE assay, added once or once daily for 2 days, read-out: EC50",1000 nM
same,EC50,A2 strain RSV; [12],300 nM
same,IC50,MA-104 cells; [13],> 10 µM
same,EC50,RSV strain A2 [1]; virus yield reduced by 50%,320 nM
same,EC90,RSV strain A2 [1]; virus yield reduced by 90%,1000 nM
same,EC50,RSV strain A2 [2],40 nM
same,IC50,"Hep-2 Cells [3]; Table 10, CPE, B.I.D. 2 days, HEp2",> 3.2 µM
same,IC50,"Hep-2 Cells [3]; Table 10, CPE, B.I.D. 3 days, HEp2",> 3.2 µM
same,IC50,"Hep-2 Cells [3]; Table 10, CPE, B.I.D. 4 days, HEp2",3.2 µM
same,IC50,"Hep-2 Cells [3]; Table 10, CPE, q.d. 1 day (added along with virus, never replenished), HEp2",> 3.2 µM
same,IC50,"Hep-2 Cells [3]; Table 10, CPE, q.d. 3 days, HEp2",> 3.2 µM
same,IC50,"Hep-2 Cells [3]; Table 10, CPE, q.d. 4 days, HEp2",> 3.2 µM
same,IC50,"Hep-2 Cells [3]; Table 12, CPE, test with 393 (clinical isolate), HEp-2",> 3.2 µM
same,IC50,"Hep-2 Cells [3]; Table 12, CPE, test with CH18537 (B), HEp-2",> 3.2 µM
same,IC50,"Hep-2 Cells [3]; Table 12, CPE, test with Long (A), HEp-2",> 3.2 µM
same,IC50,"Hep-2 Cells [3]; Table 13, CPE, q.d., Day 0, HEp-2",> 3.2 µM
same,IC50,"Hep-2 Cells [3]; Table 13, CPE, q.d., Day 1, HEp-2",> 3.2 µM
same,IC50,"Hep-2 Cells [3]; Table 13, CPE, q.d., Day 2, HEp-2",2.2 µM
same,EC50,RSV strain A2 [4]; [14],50 nM
same,EC50,"RSV strain A2 [4]; Table 13, neutral red, q.d., fresh compound up to Day 1 post infection, HEp-2",320 nM
same,IC50,"Hep-2 Cells [5]; Table 11, neutral red, B.I.D. 2 days, HEp2",3.2 µM
same,IC50,"Hep-2 Cells [5]; Table 11, neutral red, B.I.D. 3 days, HEp2",> 3.2 µM
same,IC50,"Hep-2 Cells [5]; Table 11, neutral red, B.I.D. 4 days, HEp2",3.2 µM
same,IC50,"Hep-2 Cells [5]; Table 11, neutral red, q.d. 1 day (added along with virus, never replenished), HEp2",> 3.2 µM
same,IC50,Hep-2 Cells [5]; [14],2 µM
same,IC50,"Hep-2 Cells [5]; Table 11, neutral red, q.d. 4 days, HEp2",> 3.2 µM
same,IC50,"Hep-2 Cells [5]; Table 12, neutral red, test with 393 (clinical isolate), HEp-2",> 3.2 µM
same,IC50,"Hep-2 Cells [5]; Table 12, neutral red, test with CH18537 (B), HEp-2",2.4 µM
same,IC50,"Hep-2 Cells [5]; Table 12, neutral red, test with Long (A), HEp-2",2 µM
same,IC50,"Hep-2 Cells [5]; Table 13, neutral red, q.d., Day 0, HEp-2",> 3.2 µM
same,IC50,"Hep-2 Cells [5]; Table 13, neutral red, q.d., Day 1, HEp-2",> 3.2 µM
same,IC50,"Hep-2 Cells [5]; Table 13, neutral red, q.d., Day 2, HEp-2",2.2 µM
same,EC50,RSV CH18537 (B) [6],100 nM
same,EC50,RSV Long (A) [7],300 nM
same,EC50,[8],300 nM
same,EC50,RSV CH18537 (B) [9],100 nM
same,EC50,RSV Long (A) [10],400 nM
same,EC50,[11],1600 nM
"AsAsAsAATGGGGCAAAsTsAsA (AAAAATGGGGCAAATAA; antisense; DNA, linkages s3 o10 s3 (s phosphorothioate, o phosphodiester), methylation of C not given here) [MP320, gapmer antisense oligonucleotide, three thiophosphorylated linkages at both termini]",EC50,A2 strain RSV; [12],10000 nM
same,IC50,MA-104 cells; [13],> 10 µM
"AsAsAsAsAsTsGsGsGsGsCsAsAsAsTsAsA (AAAAATGGGGCAAATAA; antisense; DNA, all phosphorothioate, methylation of C not given here) [MP273]",EC50,A2 strain RSV; [12],3000 nM
same,EC50,A2 strain RSV; [15],3000 nM
same,IC50,MA-104 cells; [13],> 10 µM
same,IC50,MA-104 cells; [16],> 10 µM
"AsTsAsAsGsGsGsGsAsAsCsAsTsAsAsAsA (ATAAGGGGAACATAAAA; antisense; DNA, all phosphorothioate, methylation of C not given here) [MP317, control all PS oligonucleotide that still contained the G quartet motif but otherwise scrambled]",EC50,A2 strain RSV; [12],1000 nM
same,EC50,A2 strain RSV; [15],1000 nM
same,IC50,MA-104 cells; [13],5 µM
same,IC50,MA-104 cells; [16],5 µM
"GsAsAsGsAsCsAsGsAsAsTsAsAsGsAsTsA (GAAGACAGAATAAGATA; antisense; DNA, all phosphorothioate, methylation of C not given here) [MP318]",EC50,A2 strain RSV; [12],10000 nM
same,EC50,A2 strain RSV; [15],10000 nM
same,IC50,MA-104 cells; [13],8 µM
same,IC50,MA-104 cells; [16],8 µM
spA2'p(A2'p)3 -[(Bu)p]2 -(5'cta tcg gtt aga taa ac3'-3'a5') [spA4-antiRSV3'-3'A/(8530-8547)],inhibition of levels of M2 RNA,RSV M2 RNA,17%

# — patent US6214805A, “RNase L activators and antisense oligonucleotides effective to treat RSV infections” (priority 1997, dated 2001)
